In patent publication US9290507B2, “B-RAF kinase inhibitors” (Boehringer Ingelheim International GmbH, priority 2010, dated 2016):

The molecules below were run against B-Raf (V600E)-kinase (Homo sapiens (Human), UniProt P15056, V600E) (assay: Kinase test B-Raf (V600E)). Conditions: 1 h preincubation, 250 μM ATP.
Format: biochemical
Experimental: In a dilution series 10 μL/well of test substance solution are placed in a multiwell plate. The dilution series is selected so that generally a range of concentrations of 2 μM to 0.119 nM or 0.017 nM is covered. If necessary the initial concentration of 2 μM is changed to 50 μM, 10 μM or 0.4 μM or 0.2857 μM and further dilution is carried out accordingly. The final concentration of DMSO is 5%. 10 μL/well of the B-Raf (V600E)-kinase solution are pipetted in (containing 0.5 ng B-Raf (V600E)-kinase (e.g. from Upstate) in 20 mM Tris-HCl pH 7.5, 0.1 mM EDTA, 0.1 mM EGTA, 0.286 mM sodium orthovanadate, 10% glycerol, 1 mg/mL bovine serum albumin, 1 mM dithiothreitol) and the mixture is incubated for 1 h at RT under with shaking. The kinase reaction is started by the addition of 20 μL/well ATP solution [final concentration: 250 μM ATP, 30 mM Tris-HCl pH 7.5, 0.02% Brij, 0.2 mM sodium orthovanadate, 10 mM magnesium acetate, 0.1 mM EGTA, phosphatase cocktail (Sigma, #P2850, dilution recommended by the manufacturer)] and 10 μL/well MEK1 solution [containing 50 ng biotinylated MEK1 (prepared from purified MEK1 according to standard procedure, e.g. with EZ-Link Sulpho-NHS-LC-Biotin reagent, Pierce, #21335)] and carried out for 60 min at RT with constant shaking. The reaction is stopped by the addition of 12 μL/well of a 100 mM EDTA solution and incubation is continued for a further 5 min. 55 μL/well of the reaction solution are transferred into a streptavidin-coated plate (e.g. Streptawell HighBond, Roche, #11989685001) and shaken gently for 1 h at RT, in order to bind biotinylated MEK1 to the plate. After elimination of the liquid the plate is washed five times with 200 μL/well of 1×PBS and 100 μL/well solution of primary antibody plus europium-labelled secondary antibody [Anti Phospho-MEK (Ser217/221), Cell Signaling, #9121 and Eu-N1 labelled goat-anti-rabbit antibody, Perkin Elmer, #AD0105] is added, the primary antibody is diluted 1:2000 and the secondary antibody is diluted to 0.4-0.5 μg/mL in Delfia Assay Buffer (Perkin Elmer, #1244-111). After 1 h shaking at RT the solution is poured away and washed five times with 200 μL/well Delfia Wash Buffer (Perkin Elmer, #4010-0010/#1244-114). After the addition of 200 μL/well Enhancement Solution (Perkin Elmer, #4001-0010/#1244-105) the mixture is shaken for 10 min at RT and then measured in a Wallac Victor using the program “Delfia Time Resolved Fluorescence (Europium)”. IC50 values are obtained from these dosage-activity curves using a software program (GraphPadPrizm).

B-Raf (V600E)-kinase, sequence (P15056 whole entry V600E): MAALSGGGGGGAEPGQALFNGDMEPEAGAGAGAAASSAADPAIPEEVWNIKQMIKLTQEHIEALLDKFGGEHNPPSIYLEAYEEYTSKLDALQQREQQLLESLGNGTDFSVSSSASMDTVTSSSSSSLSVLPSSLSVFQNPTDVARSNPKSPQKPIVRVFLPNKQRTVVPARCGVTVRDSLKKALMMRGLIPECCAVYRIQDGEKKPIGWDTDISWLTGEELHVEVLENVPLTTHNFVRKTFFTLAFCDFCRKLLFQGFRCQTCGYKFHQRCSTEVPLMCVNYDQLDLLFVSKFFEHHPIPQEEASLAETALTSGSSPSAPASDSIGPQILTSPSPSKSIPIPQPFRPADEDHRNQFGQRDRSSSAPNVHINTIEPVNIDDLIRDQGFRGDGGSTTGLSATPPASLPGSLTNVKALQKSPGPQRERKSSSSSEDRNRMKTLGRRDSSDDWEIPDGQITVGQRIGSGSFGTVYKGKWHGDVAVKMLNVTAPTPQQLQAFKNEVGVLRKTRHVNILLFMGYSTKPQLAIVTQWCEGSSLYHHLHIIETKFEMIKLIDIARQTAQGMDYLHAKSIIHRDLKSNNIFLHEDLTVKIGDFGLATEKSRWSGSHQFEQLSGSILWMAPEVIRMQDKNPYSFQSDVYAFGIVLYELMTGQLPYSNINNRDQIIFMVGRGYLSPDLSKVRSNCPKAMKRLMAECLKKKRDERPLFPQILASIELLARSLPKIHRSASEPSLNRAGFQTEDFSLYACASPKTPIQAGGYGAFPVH

| SMILES | IC50 |
| --- | --- |
| Cc1ccc(C(=O)Nc2cc(C(C)(C)C)on2)cc1-n1cc(-c2cncc(N3CCN(C)CC3)c2)nn1 [I-1] | 8 nM |
| Cc1ccc(C(=O)Nc2cc(C(C)(C)C)ccn2)cc1-n1cc(-c2cncc(N3CCN(C)CC3)c2)nn1 [I-2] | 18 nM |
| Cc1ccc(C(=O)Nc2cc(C(C)(C)C)on2)cc1-n1cc(-c2cncc(N(C)CCN(C)C)c2)nn1 [I-3] | 7 nM |
| Cc1ccc(C(=O)Nc2cc(C(C)(C)C)on2)cc1-n1cc(-c2cncc(N3CCN(C(C)(C)C)CC3)c2)nn1 [I-4] | 12 nM |
| Cc1ccc(C(=O)Nc2cc(C(C)(C)C)on2)cc1-n1cc(-c2cncc(N3CCN(C4CCCC4)CC3)c2)nn1 [I-5] | 14 nM |
| C=CCN1CCN(c2cncc(-c3cn(-c4cc(C(=O)Nc5cc(C(C)(C)C)on5)ccc4C)nn3)c2)CC1 [I-6] | 22 nM |
| CCN1CCC2(CCN(c3cncc(-c4cn(-c5cc(C(=O)Nc6cc(C(C)(C)C)on6)ccc5C)nn4)c3)C2)C1 (stereo not shown) [I-7] | 9 nM |
| Cc1ccc(C(=O)Nc2cc(C(C)(C)C)on2)cc1-n1cc(-c2cncc(N3CCN(CC4CCCO4)CC3)c2)nn1 (stereo not shown) [I-8] | 22 nM |
| Cc1ccc(C(=O)Nc2cc(C(C)(C)C)on2)cc1-n1cc(-c2cncc(N3CCC(CN(C)C)CC3)c2)nn1 [I-9] | 12 nM |
| Cc1ccc(C(=O)Nc2cc(C(C)(C)C)on2)cc1-n1cc(-c2cncc(N(C)C3CCOC3)c2)nn1 (stereo not shown) [I-10] | 8 nM |
| Cc1ccc(C(=O)Nc2cc(C(C)(C)C)on2)cc1-n1cc(-c2cncc(NC3CCOC3)c2)nn1 (stereo not shown) [I-11] | 6 nM |
| Cc1ccc(C(=O)Nc2cc(C(C)(C)C)on2)cc1-n1cc(-c2cncc(NC(C)(C)C)c2)nn1 [I-12] | 18 nM |
| Cc1ccc(C(=O)Nc2cc(C(C)(C)C)n[nH]2)cc1-n1cc(-c2cncc(N3CCOCC3)c2)nn1 [I-13] | 12 nM |
| Cc1ccc(C(=O)Nc2cc(C(C)(C)C)on2)cc1-n1cc(-c2cncc(NC(C)C)c2)nn1 [I-14] | 17 nM |
| Cc1ccc(C(=O)Nc2cc(C(C)(C)C)on2)cc1-n1cc(-c2cncc(N3CCN(C)C(C)C3)c2)nn1 (stereo not shown) [I-15] | 21 nM |
| Cc1ccc(C(=O)Nc2cc(C(C)(C)C)on2)cc1-n1cc(-c2cncc(N3CCN(CCN4CCOCC4)CC3)c2)nn1 [I-16] | 14 nM |
| Cc1ccc(C(=O)Nc2cc(C(C)(C)C)on2)cc1-n1cc(-c2cncc(N3CCCOCC3)c2)nn1 [I-17] | 16 nM |
| Cc1ccc(C(=O)Nc2cc(C(C)(C)C)on2)cc1-n1cc(-c2cncc(N(C)C)c2)nn1 [I-18] | 13 nM |
| Cc1ccc(C(=O)Nc2cc(C(C)(C)C)on2)cc1-n1cc(-c2cncc(N3CCC3)c2)nn1 [I-19] | 11 nM |

| SMILES | IC50 |
| --- | --- |
| COCC(C)Nc1cncc(-c2cn(-c3cc(C(=O)Nc4cc(C(C)(C)C)on4)ccc3C)nn2)c1 (stereo not shown) [I-20] | 31 nM |
| Cc1ccc(C(=O)Nc2cc(C(C)(C)C)on2)cc1-n1cc(-c2cncc(NCC(F)(F)F)c2)nn1 [I-21] | 50 nM |
| Cc1ccc(C(=O)Nc2cc(C(C)(C)C)on2)cc1-n1cc(-c2cncc(NCCF)c2)nn1 [I-22] | 16 nM |
| Cc1ccc(C(=O)Nc2cc(C(C)(C)C)on2)cc1-n1cc(-c2cncc(N3C[C@@H](C)O[C@@H](C)C3)c2)nn1 [I-23] | 26 nM |
| Cc1ccc(C(=O)Nc2cc(C(C)(C)C)nn2C)cc1-n1cc(-c2cncc(N3CCOCC3)c2)nn1 [I-24] | 19 nM |
| Cc1ccc(C(=O)Nc2cc(C(C)(C)C)on2)cc1-n1cc(-c2cncc(N(C)CC3CCCO3)c2)nn1 (stereo not shown) [I-25] | 45 nM |
| Cc1ccc(C(=O)Nc2cc(C(C)(C)C)on2)cc1-n1cc(-c2cncc(N3CCN(C4CC4)CC3)c2)nn1 [I-26] | 28 nM |
| CCCCN1CCN(c2cncc(-c3cn(-c4cc(C(=O)Nc5cc(C(C)(C)C)on5)ccc4C)nn3)c2)CC1 [I-27] | 15 nM |
| Cc1ccc(C(=O)Nc2cc(C(C)(C)C)on2)cc1-n1cc(-c2cncc(NC3CC3)c2)nn1 [I-28] | 10 nM |
| Cc1ccc(C(=O)Nc2cc(C(C)(C)C)on2)cc1-n1cc(-c2cncc(N(C)C3CCOCC3)c2)nn1 [I-29] | 7 nM |
| CNc1cncc(-c2cn(-c3cc(C(=O)Nc4cc(C(C)(C)C)on4)ccc3C)nn2)c1 [I-30] | 14 nM |
| Cc1ccc(C(=O)Nc2cc(C(C)(C)C)on2)cc1-n1cc(-c2cncc(N3CCN(CC(F)(F)F)CC3)c2)nn1 [I-31] | 98 nM |
| Cc1ccc(C(=O)Nc2cc(C(C)(C)C)on2)cc1-n1cc(-c2cncc(N3CC(C)NC(C)C3)c2)nn1 (stereo not shown) [I-32] | 9 nM |
| Cc1ccc(C(=O)Nc2cc(C(C)(C)C)on2)cc1-n1cc(-c2cncc(NCC3CCCO3)c2)nn1 (stereo not shown) [I-34] | 9 nM |
| Cc1ccc(C(=O)Nc2cc(C(C)(C)C)on2)cc1-n1cc(-c2cncc(N(C)C(C)C)c2)nn1 [I-35] | 45 nM |
| COCCNc1cncc(-c2cn(-c3cc(C(=O)Nc4cc(C(C)(C)C)on4)ccc3C)nn2)c1 [I-36] | 16 nM |
| Cc1ccc(C(=O)Nc2cc(C(C)(C)C)on2)cc1-n1cc(-c2cncc(N3CCN(C(C)C)C(C)C3)c2)nn1 (stereo not shown) [I-37] | 20 nM |
| Cc1ccc(C(=O)Nc2cc(C(C)(C)C)on2)cc1-n1cc(-c2cncc(NC3CCOCC3)c2)nn1 [I-38] | 10 nM |
| Cc1ccc(C(=O)Nc2cc(C(C)(C)C)on2)cc1-n1cc(-c2cncc(N3CCCC3)c2)nn1 [I-39] | 41 nM |

Further lines, results first:

| IC50 | SMILES |
| --- | --- |
| 19 nM | COCCCN1CCN(c2cncc(-c3cn(-c4cc(C(=O)Nc5cc(C(C)(C)C)on5)ccc4C)nn3)c2)CC1 [I-40] |
| 8 nM | CCCN1CCN(c2cncc(-c3cn(-c4cc(C(=O)Nc5cc(C(C)(C)C)on5)ccc4C)nn3)c2)CC1 [I-41] |
| 61 nM | Cc1ccc(C(=O)Nc2cc(C(C)(C)C)on2)cc1-n1cc(-c2cncc(N3CCCCC3)c2)nn1 [I-42] |
| 38 nM | Cc1ccc(C(=O)Nc2cc(C(C)(C)C)on2)cc1-n1cc(-c2cncc(NC3CCCC3)c2)nn1 [I-43] |
| 11 nM | Cc1ccc(C(=O)Nc2cc(C(C)(C)C)on2)cc1-n1cc(-c2cncc(N3CCN(C(C)C)CC3)c2)nn1 [I-44] |
| 29 nM | COCCN1C(C)CN(c2cncc(-c3cn(-c4cc(C(=O)Nc5cc(C(C)(C)C)on5)ccc4C)nn3)c2)CC1C (stereo not shown) [I-45] |
| 7 nM | Cc1ccc(C(=O)Nc2cc(C(C)(C)C)on2)cc1-n1cc(-c2cncc(NCCN(C)C)c2)nn1 [I-46] |
| 10 nM | Cc1ccc(C(=O)Nc2cc(C(C)(C)C)on2)cc1-n1cc(-c2cncc(N3CCOCC3)c2)nn1 [I-47] |
| 6 nM | CCN1CCN(c2cncc(-c3cn(-c4cc(C(=O)Nc5cc(C(C)(C)C)on5)ccc4C)nn3)c2)CC1 [I-48] |
| 29 nM | CCOCCN1CCN(c2cncc(-c3cn(-c4cc(C(=O)Nc5cc(C(C)(C)C)on5)ccc4C)nn3)c2)CC1 [I-49] |
| 13 nM | Cc1ccc(C(=O)Nc2cc(C(C)(C)C)on2)cc1-n1cc(-c2cncc(N3CCN(CC(C)C)CC3)c2)nn1 [I-50] |
| 12 nM | Cc1ccc(C(=O)Nc2cc(C(C)(C)C)on2)cc1-n1cc(-c2cncc(N3CCC(N(C)C)CC3)c2)nn1 [I-51] |
| 18 nM | Cc1ccc(C(=O)Nc2cc(C(C)(C)C)on2)cc1-n1cc(-c2cncc(N3CCCN(C(C)C)CC3)c2)nn1 [I-52] |
| 11 nM | COCCN(C)c1cncc(-c2cn(-c3cc(C(=O)Nc4cc(C(C)(C)C)on4)ccc3C)nn2)c1 [I-53] |
| 51 nM | Cc1ccc(C(=O)Nc2cc(C(C)(C)C)on2)cc1-n1cc(-c2cncc(NCC(F)F)c2)nn1 [I-54] |
| 16 nM | Cc1ccc(C(=O)Nc2cc(C(C)(C)C)nn2C)cc1-n1cc(-c2cncc(N3CCN(C)CC3)c2)nn1 [I-55] |
| 18 nM | CCN(C)c1cncc(-c2cn(-c3cc(C(=O)Nc4cc(C(C)(C)C)on4)ccc3C)nn2)c1 [I-56] |
| 16 nM | Cc1ccc(C(=O)Nc2cc(C(F)(F)F)ccn2)cc1-n1cc(-c2cncc(N3CCC3)c2)nn1 [I-57] |
| 11 nM | Cc1ccc(C(=O)Nc2cc(C(F)(F)F)ccn2)cc1-n1cc(-c2cncc(NCC3CCCO3)c2)nn1 (stereo not shown) [I-58] |
| 44 nM | Cc1ccc(C(=O)Nc2cc(C(F)(F)F)ccn2)cc1-n1cc(-c2cncc(N(C)CC3CCCO3)c2)nn1 (stereo not shown) [I-59] |
| 8 nM | Cc1ccc(C(=O)Nc2cc(C(F)(F)F)ccn2)cc1-n1cc(-c2cncc(N3CCC(N(C)C)CC3)c2)nn1 [I-60] |
| 11 nM | COCCN1CCN(c2cncc(-c3cn(-c4cc(C(=O)Nc5cc(C(F)(F)F)ccn5)ccc4C)nn3)c2)CC1 [I-61] |
| 24 nM | Cc1ccc(C(=O)Nc2cc(C(F)(F)F)ccn2)cc1-n1cc(-c2cncc(N(C)C)c2)nn1 [I-62] |
